{
  "source": "patent US20250002467A1",
  "about": "“DESIGN, SYNTHESIS AND MECHANISMS OF ANTICANCER ACTIVITY OF NEW ACETYLATED 5-AMINOSALICYLATE-THIAZOLINONE HYBRID DERIVATIVES” (University of Sharjah, priority 2023, published 2025)",
  "format_in_all_cases": "cell-based",
  "key": {"A549 cells": {"tested_on": "A549 cells", "assay": "Transcriptomic analysis of HH33-treated A549 cells", "experimental": "(§1) RNA extraction was carried out followed by cDNA synthesis using SuperScript VILO cDNA Synthesis kit (Invitrogen, Waltham, MA, USA) and amplification using Ion AmpliSeq gene expression core panel primers. The prepared library was purified using Agencourt AMPure XP beads (Beckman Coulter, California, USA) and quantified using Ion Library TaqMan™ Quantitation Kit (Applied Biosystems, Waltham, MA, USA). The libraries were further diluted to […] and pooled equally with four individual samples per pool. The pooled libraries were amplified using emulsion PCR on Ion OneTouch™ 2 instrument (OT2) and the enrichment was performed on Ion OneTouch™ ES following the manufacturer's instruction. Thus, prepared template libraries were then sequenced with Ion S5 XL Semiconductor sequencer using the Ion 540™ Chip. RNA-seq data were analyzed using Ion Torrent Software Suite version 5.4 and the alignment was carried out using modifications of the Torrent Mapping Alignment Program (TMAP) optimizing it for aligning the raw sequencing reads against reference sequence derived from hgl9 (GRCh37) assembly. The specificity and sensitivity was maintained by implementing a two-stage mapping approach by employing BWA-short, BWA-long, SSAHA [31], Super-maximal Exact Matching and Smith Waterman algorithm for optimal mapping. Raw read counts of the targeted genes were performed using Samtools (Samtools view —c -F 4-L bed_file bam_file) and the number of expressed transcripts was confirmed after Fragments Per Kilobase Million (FPKM) normalisation. Differentially expressed gene (DEG) analysis was performed using a script written in R programming language (version 3.6.3) with function calls to DESeq2 package from Bioconductor library sets. Raw read counts from RNASeq were normalized using quantile normalization. All counts ranked “0” were excluded. Differentially expressed genes between the two set of cell lines [HH33-treated (n=3), and untreated (n=3)] were assessed using 2 tailed t-test. Differentially expressed genes with p-value of <0.05, adjusted p-value<0.8 and 5-fold difference were included for pathway analysis using Metascape."}, "MCF7 cells [1]": {"tested_on": "MCF7 cells", "assay": "Transcriptomic analysis of HH33-treated MCF7 cells", "experimental": "as §1"}, "MCF7": {"tested_on": "MCF7", "assay": "Cell cycle analysis by flow cytometry, MCF7", "conditions": "1 μM, up to 72 hours, Control 11.3%", "experimental": "(§2) The effect of the HH32 and HH33 compounds on the distribution of cell cycle at different time points (2, 4, 8, 24, 48, and 72 hours) was analyzed using flow cytometry. Briefly, the cells were harvested and fixed in 70% ethanol for 24 hours at −20° C. The fixed cells were treated with RNAase […] (Sigma Aldrich, Missouri, USA) and stained with propidium iodide […] (Sigma Aldrich, Missouri, USA). The data were acquired using BD Accuri C6 flow cytometer (Becton Dickenson, San Jose, CA, USA) and analysis was done using Flow Jo software (Tree Star, Inc, Ashland, OR, USA)."}, "MCF7 cells [2]": {"tested_on": "MCF7 cells", "assay": "Transcriptomic analysis of HH33-treated MCF7 cells", "conditions": "confirmed by quantitative RT-PCR"}, "A549": {"tested_on": "A549", "assay": "Cell cycle analysis by flow cytometry, A549", "conditions": "1 μM, up to 72 hours, Control 8.5%", "experimental": "as §2"}, "HCT116": {"tested_on": "HCT116", "assay": "Cell cycle analysis by flow cytometry, HCT116", "conditions": "1 μM, peak at 8 hours, Control 27.4%", "experimental": "as §2"}, "[3]": {"conditions": "A549, H33-treated vs DMSO-treated, DNA repair pathways"}, "[4]": {"conditions": "H33-treated A549 cells/DMSO-treated A549 cells, Apoptosis"}, "[5]": {"conditions": "H33-treated A549 cells/DMSO-treated A549 cells, Cell Cycle"}, "[6]": {"conditions": "H33-treated A549 cells/DMSO-treated A549 cells, Transcriptional Regulation by TP53"}, "[7]": {"conditions": "H33-treated vs DMSO-treated, DNA repair pathways"}},
  "data": [
    {"smiles": "COC(=O)c1cc(NC2=NC(=O)C(=Cc3ccc(N(C)C)cc3)S2)ccc1OC(C)=O", "note": "[HH33, Methyl 2-acetoxy-5-[(5-(4-dimethylaminobenzylidene)-4 (H)-oxo-1,3-thiazol-2-yl)-amino]benzoate]", "values": [
      {"measurement": "Fold change (H_Mean/D_Mean) CLSPN", "setting": "A549 cells; A549, H33-treated vs DMSO-treated, DNA repair / cell cycle", "value": 0.01798},
      {"measurement": "Fold change (H_Mean/D_Mean) BARD1", "setting": "A549 cells; A549, H33-treated vs DMSO-treated, DNA repair / cell cycle / TP53 regulation", "value": 0.0451},
      {"measurement": "Fold change (H_Mean/D_Mean) ACTR8", "setting": "A549 cells; [3]", "value": 0.01139},
      {"measurement": "Fold change (H_Mean/D_Mean) CHEK2", "setting": "A549 cells; [3]", "value": 0.05943},
      {"measurement": "Fold change (H_Mean/D_Mean) EYA3", "setting": "A549 cells; [3]", "value": 0.02596},
      {"measurement": "six shared genes (ATAD2, CDCA3, FAMIIIB, CDKN3, HISTIH2AH, MIS18BP1)", "setting": "A549 cells; A549, confirmed by quantitative RT-PCR", "value": "maximally downregulated"},
      {"measurement": "apoptotic signaling pathway", "setting": "A549 cells; A549, hypergeometric test", "value": "upregulation"},
      {"measurement": "cell cycle progression pathway", "setting": "A549 cells; A549, hypergeometric test", "value": "down-regulation"},
      {"measurement": "Fold change BECN1", "setting": "A549 cells; [4]", "value": 186.7500},
      {"measurement": "Fold change CRIP1", "setting": "A549 cells; [4]", "value": 199.5714},
      {"measurement": "Fold change TGFB1", "setting": "A549 cells; [4]", "value": 100.8000},
      {"measurement": "Fold change TNFRSF10C", "setting": "A549 cells; [4]", "value": 802.5000},
      {"measurement": "Fold change YWHAH", "setting": "A549 cells; [4]", "value": 168.8804},
      {"measurement": "Fold change CDC14A", "setting": "A549 cells; [5]", "value": 0.01425},
      {"measurement": "Fold change CEP78", "setting": "A549 cells; [5]", "value": 0.01614},
      {"measurement": "Fold change ODF2", "setting": "A549 cells; [5]", "value": 0.005902},
      {"measurement": "Fold change CCNE1", "setting": "A549 cells; [6]", "value": 0.02093},
      {"measurement": "Fold change CDK9", "setting": "A549 cells; [6]", "value": 0.02262},
      {"measurement": "Fold change COX16", "setting": "A549 cells; [6]", "value": 0.04666},
      {"measurement": "Fold change CSNK2A2", "setting": "A549 cells; [6]", "value": 0.05877},
      {"measurement": "Fold change (H_Mean/D_Mean) CDC45", "setting": "MCF7 cells [1]; [7]", "value": 0.1426},
      {"measurement": "Fold change (H_Mean/D_Mean) CHAF1B", "setting": "MCF7 cells [1]; [7]", "value": 0.5251},
      {"measurement": "Fold change (H_Mean/D_Mean) DDX11", "setting": "MCF7 cells [1]; [7]", "value": 0.4961},
      {"measurement": "Fold change (H_Mean/D_Mean) ESCO2", "setting": "MCF7 cells [1]; [7]", "value": 0.2719},
      {"measurement": "Fold change (H_Mean/D_Mean) GTF2H2C", "setting": "MCF7 cells [1]; [7]", "value": 0.2907},
      {"measurement": "Fold change (H_Mean/D_Mean) MCM6", "setting": "MCF7 cells [1]; [7]", "value": 0.4195},
      {"measurement": "Fold change (H_Mean/D_Mean) MMS22L", "setting": "MCF7 cells [1]; [7]", "value": 0.2144},
      {"measurement": "Fold change (H_Mean/D_Mean) PIAS4", "setting": "MCF7 cells [1]; [7]", "value": 0.6961},
      {"measurement": "Fold change (H_Mean/D_Mean) POLA1", "setting": "MCF7 cells [1]; [7]", "value": 0.196},
      {"measurement": "Fold change (H_Mean/D_Mean) RAD17", "setting": "MCF7 cells [1]; [7]", "value": 0.3003},
      {"measurement": "Fold change (H_Mean/D_Mean) RAD51", "setting": "MCF7 cells [1]; [7]", "value": 0.2505},
      {"measurement": "Fold change (H_Mean/D_Mean) RAD51AP1", "setting": "MCF7 cells [1]; [7]", "value": 0.2877},
      {"measurement": "Fold change (H_Mean/D_Mean) RECQL", "setting": "MCF7 cells [1]; [7]", "value": 0.212},
      {"measurement": "Fold change (H_Mean/D_Mean) RIF1", "setting": "MCF7 cells [1]; [7]", "value": 0.3166},
      {"measurement": "Fold change (H_Mean/D_Mean) RNF111", "setting": "MCF7 cells [1]; [7]", "value": 0.5331},
      {"measurement": "Fold change (H_Mean/D_Mean) RNF168", "setting": "MCF7 cells [1]; [7]", "value": 0.2605},
      {"measurement": "Fold change (H_Mean/D_Mean) TRIP13", "setting": "MCF7 cells [1]; [7]", "value": 0.4436},
      {"measurement": "Fold change (H_Mean/D_Mean) UBE2N", "setting": "MCF7 cells [1]; [7]", "value": 0.3688},
      {"measurement": "Fold change (H_Mean/D_Mean) UBE2W", "setting": "MCF7 cells [1]; [7]", "value": 0.224},
      {"measurement": "Fold change (H_Mean/D_Mean) ZSWIM7", "setting": "MCF7 cells [1]; [7]", "value": 0.3144},
      {"measurement": "pathways related to DNA repair and cell cycle progression", "setting": "MCF7 cells [1]; hypergeometric test", "value": "down-regulation"},
      {"measurement": "G2/M cell cycle arrest", "setting": "MCF7", "value": 57.7, "unit": "%"},
      {"measurement": "six shared genes (ATAD2, CDCA3, FAMIIIB, CDKN3, HISTIH2AH, MIS18BP1)", "setting": "MCF7 cells [2]", "value": "maximally downregulated"},
      {"measurement": "G2/M cell cycle arrest", "setting": "A549", "value": 45.1, "unit": "%"},
      {"measurement": "G2/M phase accumulation", "setting": "HCT116", "value": 77.4, "unit": "%"}
    ]}
  ]
}
